The record followed here is US12421232B2, “Kinase inhibitor compounds and compositions and methods of use” (ICAHN SCHOOL OF MEDICINE AT MOUNT SINAI, priority 2018, dated 2025).

Common to all, as to experiment: KINOMEscan Assay (DiscoverX)
Holding throughout (format): binding
Holding throughout (conditions): read-out: % DMSO Ctrl

Assay [1] addresses T1, PIKFYVE (Homo sapiens, UniProt Q9Y2I7).
T1 construct: purchased DiscoverX

For assay [2], the target named is T2, CLK3 (Homo sapiens, UniProt P49761).
T2 construct: purchased DiscoverX

The target in assay [3] is T3, EGFR(L858R,T790M) (Homo sapiens, UniProt P00533, L858R/T790M).
T3 construct: purchased DiscoverX

Assay [4] concerns the target T4, PIK3CG (Homo sapiens, UniProt P48736).
T4 construct: purchased DiscoverX

Assay [5] concerns the target T5, FLT3(D835V) (Homo sapiens, UniProt P36888, D835V).
T5 construct: purchased DiscoverX
T5 sequence (P36888 27-993 D835V): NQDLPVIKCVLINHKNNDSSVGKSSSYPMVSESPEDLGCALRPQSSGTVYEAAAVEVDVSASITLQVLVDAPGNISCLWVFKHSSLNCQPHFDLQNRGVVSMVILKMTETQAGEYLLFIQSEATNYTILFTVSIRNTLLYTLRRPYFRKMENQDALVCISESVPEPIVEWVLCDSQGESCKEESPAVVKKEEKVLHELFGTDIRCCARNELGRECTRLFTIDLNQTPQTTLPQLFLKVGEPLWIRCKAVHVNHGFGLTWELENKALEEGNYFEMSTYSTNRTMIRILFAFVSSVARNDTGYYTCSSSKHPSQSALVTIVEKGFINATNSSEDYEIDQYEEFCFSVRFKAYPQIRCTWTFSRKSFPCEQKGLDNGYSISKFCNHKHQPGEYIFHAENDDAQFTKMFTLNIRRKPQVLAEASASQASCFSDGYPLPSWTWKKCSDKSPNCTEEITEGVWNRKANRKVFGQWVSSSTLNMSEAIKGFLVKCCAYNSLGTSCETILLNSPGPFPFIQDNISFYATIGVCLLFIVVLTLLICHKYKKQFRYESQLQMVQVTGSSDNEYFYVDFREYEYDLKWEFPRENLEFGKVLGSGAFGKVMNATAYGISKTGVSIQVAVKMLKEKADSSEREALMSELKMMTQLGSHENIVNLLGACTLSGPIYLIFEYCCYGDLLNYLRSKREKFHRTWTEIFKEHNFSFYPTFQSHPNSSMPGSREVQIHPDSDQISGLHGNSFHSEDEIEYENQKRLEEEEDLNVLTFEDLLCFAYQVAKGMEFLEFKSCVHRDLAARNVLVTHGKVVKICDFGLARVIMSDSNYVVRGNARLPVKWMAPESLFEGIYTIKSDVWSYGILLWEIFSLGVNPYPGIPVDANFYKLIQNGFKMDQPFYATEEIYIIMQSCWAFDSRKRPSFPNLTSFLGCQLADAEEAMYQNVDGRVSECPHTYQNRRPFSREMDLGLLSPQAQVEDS

In assay [6] the target is T6, HIPK2 (Homo sapiens, UniProt Q9H2X6).
T6 construct: purchased DiscoverX

In assay [7] the target is T7, HASPIN (Homo sapiens, UniProt Q8TF76).
T7 construct: purchased DiscoverX
T7 sequence (Q8TF76 1-798): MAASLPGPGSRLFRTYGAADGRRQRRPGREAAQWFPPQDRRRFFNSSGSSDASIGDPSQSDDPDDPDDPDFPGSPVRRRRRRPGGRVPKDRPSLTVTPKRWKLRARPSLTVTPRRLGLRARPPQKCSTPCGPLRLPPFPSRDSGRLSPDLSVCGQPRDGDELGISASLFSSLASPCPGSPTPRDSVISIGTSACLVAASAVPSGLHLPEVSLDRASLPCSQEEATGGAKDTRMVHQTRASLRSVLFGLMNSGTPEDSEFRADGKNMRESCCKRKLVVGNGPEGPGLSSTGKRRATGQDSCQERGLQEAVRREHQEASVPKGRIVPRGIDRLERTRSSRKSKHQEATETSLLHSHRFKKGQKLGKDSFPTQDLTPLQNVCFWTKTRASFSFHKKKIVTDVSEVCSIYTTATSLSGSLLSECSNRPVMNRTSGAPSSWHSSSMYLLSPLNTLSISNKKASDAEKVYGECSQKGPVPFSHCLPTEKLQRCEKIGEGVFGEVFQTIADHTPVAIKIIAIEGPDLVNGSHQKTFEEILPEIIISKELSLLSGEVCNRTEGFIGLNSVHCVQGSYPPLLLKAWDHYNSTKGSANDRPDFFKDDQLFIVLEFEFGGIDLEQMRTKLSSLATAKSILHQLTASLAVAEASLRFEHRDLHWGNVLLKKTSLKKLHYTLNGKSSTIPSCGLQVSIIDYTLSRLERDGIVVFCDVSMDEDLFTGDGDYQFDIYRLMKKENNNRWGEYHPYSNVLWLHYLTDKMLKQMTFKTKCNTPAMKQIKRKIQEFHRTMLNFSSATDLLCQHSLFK

The target in assay [8] is T8, PIK4CB (Homo sapiens, UniProt Q9UBF8).
T8 construct: purchased DiscoverX

Where two headings read alike, the source gives them in different places.

T2 sequence (P49761 whole entry): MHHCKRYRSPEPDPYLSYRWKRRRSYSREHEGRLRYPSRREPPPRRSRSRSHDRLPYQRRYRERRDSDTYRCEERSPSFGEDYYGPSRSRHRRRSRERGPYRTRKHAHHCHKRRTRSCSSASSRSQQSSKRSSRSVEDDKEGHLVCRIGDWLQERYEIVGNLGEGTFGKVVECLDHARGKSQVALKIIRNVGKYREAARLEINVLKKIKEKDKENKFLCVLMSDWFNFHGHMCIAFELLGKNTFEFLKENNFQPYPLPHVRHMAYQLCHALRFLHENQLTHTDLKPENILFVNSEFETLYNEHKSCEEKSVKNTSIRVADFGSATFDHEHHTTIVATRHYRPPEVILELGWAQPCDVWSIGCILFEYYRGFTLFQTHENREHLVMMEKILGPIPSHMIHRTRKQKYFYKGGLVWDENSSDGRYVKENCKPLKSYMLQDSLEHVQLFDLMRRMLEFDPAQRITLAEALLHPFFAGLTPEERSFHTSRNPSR
T6 sequence (Q9H2X6 whole entry): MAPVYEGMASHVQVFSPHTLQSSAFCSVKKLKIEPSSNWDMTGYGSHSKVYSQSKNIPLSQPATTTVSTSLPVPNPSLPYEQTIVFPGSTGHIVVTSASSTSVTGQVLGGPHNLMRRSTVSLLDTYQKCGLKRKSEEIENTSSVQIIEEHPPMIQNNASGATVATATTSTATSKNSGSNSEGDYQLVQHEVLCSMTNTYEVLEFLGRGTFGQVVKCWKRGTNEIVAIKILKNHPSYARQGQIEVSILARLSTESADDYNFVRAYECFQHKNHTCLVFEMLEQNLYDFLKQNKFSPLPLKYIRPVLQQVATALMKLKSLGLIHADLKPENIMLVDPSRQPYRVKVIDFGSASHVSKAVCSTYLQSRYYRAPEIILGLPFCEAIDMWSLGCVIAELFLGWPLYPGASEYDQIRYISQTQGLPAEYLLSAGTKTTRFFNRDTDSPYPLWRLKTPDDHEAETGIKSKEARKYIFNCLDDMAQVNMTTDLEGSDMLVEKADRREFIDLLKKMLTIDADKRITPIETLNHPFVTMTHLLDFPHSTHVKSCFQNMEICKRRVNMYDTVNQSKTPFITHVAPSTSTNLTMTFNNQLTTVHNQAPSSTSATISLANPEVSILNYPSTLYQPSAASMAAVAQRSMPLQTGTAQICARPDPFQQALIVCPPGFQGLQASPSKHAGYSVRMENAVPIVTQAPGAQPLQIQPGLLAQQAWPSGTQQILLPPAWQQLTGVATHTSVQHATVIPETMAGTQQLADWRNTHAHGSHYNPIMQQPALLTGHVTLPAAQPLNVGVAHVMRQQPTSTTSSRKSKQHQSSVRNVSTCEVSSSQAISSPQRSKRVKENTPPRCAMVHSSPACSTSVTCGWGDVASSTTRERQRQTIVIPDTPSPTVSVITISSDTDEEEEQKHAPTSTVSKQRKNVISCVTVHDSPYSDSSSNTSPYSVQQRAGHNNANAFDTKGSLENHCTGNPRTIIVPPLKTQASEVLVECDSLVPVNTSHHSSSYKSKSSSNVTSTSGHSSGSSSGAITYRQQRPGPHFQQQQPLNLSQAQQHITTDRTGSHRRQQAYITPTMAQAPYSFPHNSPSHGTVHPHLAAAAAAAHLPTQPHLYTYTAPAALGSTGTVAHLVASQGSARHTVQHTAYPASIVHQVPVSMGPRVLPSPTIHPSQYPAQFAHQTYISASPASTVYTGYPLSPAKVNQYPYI
T8 sequence (Q9UBF8 whole entry): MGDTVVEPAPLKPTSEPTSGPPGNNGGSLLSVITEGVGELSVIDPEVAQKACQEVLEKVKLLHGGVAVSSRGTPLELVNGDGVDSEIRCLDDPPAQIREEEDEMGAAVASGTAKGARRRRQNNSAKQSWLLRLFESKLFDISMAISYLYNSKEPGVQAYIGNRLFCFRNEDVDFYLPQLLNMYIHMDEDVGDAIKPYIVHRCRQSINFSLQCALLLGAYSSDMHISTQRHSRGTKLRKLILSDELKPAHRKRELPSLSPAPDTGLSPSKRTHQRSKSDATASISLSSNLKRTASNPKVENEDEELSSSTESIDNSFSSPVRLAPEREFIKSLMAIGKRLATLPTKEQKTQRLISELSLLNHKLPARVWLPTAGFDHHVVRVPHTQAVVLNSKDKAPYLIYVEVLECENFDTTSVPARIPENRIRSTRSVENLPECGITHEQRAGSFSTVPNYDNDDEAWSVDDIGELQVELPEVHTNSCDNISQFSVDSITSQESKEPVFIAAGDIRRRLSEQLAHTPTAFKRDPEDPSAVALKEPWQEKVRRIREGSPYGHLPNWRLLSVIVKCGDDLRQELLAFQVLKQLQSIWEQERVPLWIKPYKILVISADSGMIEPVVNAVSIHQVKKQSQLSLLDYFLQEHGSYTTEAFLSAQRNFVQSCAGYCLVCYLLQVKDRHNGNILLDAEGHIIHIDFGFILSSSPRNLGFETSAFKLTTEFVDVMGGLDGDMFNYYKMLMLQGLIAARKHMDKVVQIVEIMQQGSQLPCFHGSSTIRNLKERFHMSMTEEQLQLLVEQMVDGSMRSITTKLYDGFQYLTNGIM
T1 sequence (Q9Y2I7 whole entry): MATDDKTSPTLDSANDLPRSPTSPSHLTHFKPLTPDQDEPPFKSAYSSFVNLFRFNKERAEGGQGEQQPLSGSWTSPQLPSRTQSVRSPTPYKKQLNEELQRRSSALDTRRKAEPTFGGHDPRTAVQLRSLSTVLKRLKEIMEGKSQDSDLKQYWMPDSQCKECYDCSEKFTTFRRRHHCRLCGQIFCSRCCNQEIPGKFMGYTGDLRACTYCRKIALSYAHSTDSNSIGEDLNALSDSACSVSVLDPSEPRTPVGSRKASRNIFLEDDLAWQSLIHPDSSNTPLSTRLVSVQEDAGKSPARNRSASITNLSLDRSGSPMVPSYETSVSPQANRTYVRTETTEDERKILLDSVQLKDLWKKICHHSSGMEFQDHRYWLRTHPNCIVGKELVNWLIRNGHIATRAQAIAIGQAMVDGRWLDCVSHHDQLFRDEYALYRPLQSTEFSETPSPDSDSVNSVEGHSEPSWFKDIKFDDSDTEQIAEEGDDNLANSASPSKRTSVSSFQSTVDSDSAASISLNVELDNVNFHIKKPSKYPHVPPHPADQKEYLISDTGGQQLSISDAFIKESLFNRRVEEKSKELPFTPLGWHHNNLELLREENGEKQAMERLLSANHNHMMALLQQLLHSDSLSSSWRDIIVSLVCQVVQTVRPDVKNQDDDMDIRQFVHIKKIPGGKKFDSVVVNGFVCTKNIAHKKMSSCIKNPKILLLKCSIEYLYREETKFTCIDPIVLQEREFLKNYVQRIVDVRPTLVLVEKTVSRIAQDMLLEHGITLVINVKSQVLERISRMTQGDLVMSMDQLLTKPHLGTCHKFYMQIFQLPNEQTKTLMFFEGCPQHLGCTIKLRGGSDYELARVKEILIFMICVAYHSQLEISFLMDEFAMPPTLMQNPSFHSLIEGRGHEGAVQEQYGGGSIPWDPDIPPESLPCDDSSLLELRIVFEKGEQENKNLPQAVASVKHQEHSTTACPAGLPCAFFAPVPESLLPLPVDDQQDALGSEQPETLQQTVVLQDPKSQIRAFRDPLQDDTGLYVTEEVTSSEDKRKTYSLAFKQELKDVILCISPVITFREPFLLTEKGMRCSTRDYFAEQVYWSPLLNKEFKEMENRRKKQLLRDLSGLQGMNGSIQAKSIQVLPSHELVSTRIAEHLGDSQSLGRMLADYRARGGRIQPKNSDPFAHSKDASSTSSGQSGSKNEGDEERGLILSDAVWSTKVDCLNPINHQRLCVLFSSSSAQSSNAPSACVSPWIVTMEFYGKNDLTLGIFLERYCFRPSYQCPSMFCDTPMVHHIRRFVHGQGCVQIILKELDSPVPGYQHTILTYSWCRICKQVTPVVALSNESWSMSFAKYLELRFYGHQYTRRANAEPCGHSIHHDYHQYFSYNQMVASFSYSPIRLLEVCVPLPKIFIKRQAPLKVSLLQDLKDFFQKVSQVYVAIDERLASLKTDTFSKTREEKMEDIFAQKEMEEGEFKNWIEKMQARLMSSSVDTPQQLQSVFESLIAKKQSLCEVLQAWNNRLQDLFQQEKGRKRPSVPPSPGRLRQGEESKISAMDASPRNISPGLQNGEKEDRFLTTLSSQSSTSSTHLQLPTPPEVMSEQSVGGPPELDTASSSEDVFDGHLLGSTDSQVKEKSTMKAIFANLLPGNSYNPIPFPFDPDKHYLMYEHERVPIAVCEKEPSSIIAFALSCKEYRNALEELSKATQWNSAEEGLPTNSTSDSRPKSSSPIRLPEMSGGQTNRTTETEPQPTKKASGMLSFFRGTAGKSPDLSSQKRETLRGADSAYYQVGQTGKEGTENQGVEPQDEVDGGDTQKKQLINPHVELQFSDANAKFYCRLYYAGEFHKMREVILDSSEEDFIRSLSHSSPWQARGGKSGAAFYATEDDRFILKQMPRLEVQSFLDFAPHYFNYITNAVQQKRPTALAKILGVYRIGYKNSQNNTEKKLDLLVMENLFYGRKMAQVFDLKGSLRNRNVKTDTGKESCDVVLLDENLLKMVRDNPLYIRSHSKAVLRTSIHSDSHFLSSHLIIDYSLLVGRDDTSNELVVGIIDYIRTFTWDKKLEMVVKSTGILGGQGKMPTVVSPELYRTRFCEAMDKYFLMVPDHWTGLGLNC

Regarding `COc1ccc2c(c1)[nH]c1c(C)nc(CO)cc12` [Compound 2-8, (1-Methyl-7-methoxy-9H-pyrido[3,4-b]indol-3-yl)methanol], the remaining binding at 10 µM was 88% in assay [1] (PIKFYVE, 10 μM); 36% in assay [2] (CLK3, 10 μM); 79% in assay [3] (EGFR(L858R,T790M) mutant, 10 μM); 67% in assay [4] (PIK3CG, 10 μM); 42% in assay [5] (FLT3(D835V) mutant, 10 μM).
As for `COc1ccc2c3ccnc(C)c3n(CCCc3noc(N)n3)c2c1` [Compound 20-13, 3-(3-(7-Methoxy-1-methyl-β-carbolin-9-yl)propyl)-5-amino-1,2,4-oxadiazole], the remaining binding at 10 µM in assay [6] was 2.3%; in assay [1], 3.2%; in assay [2], 54%; in assay [3], 9.2%; in assay [4], 3.3%; in assay [5] it was 2.6%. In addition, the figures for the remaining binding at 10 µM in assay [7] and in assay [8] were 0.35% and 9.9%, respectively.
For the compound `C#CCn1c2cc(OC)ccc2c2ccnc(C)c21` [Compound 20-23a, 3-(7-Methoxy-1-methyl-β-carbolin-9-yl)-propan-1-yne], the remaining binding at 10 µM came to 71% in assay [6] (HIPK2, 10 μM); 60% in assay [1]; 19% in assay [2]; 100% in assay [3]; 42% in assay [4]; 2.5% in assay [5] (FLT3(D835V) mutant, 10 μM). In addition, the remaining binding at 10 µM in assay [7] was determined as 1.7%; in assay [8] (PIK4CB, 10 μM), 0%.
Take `COc1ccc2c(c1)[nH]c1c(C)nccc12` [Harmine, reference compound]: the remaining binding at 10 µM came out at 8.6% in assay [6], 25% in assay [5], 2% in assay [7] and 12% in assay [8].
